The record followed here is patent publication US20190023658A1, “SUBSTITUTED 2-DIFLUOROMETHYL-NICOTIN(THIO)CARBOXANILIDE DERIVATIVES AND THEIR USE AS FUNGICIDES” (Bayer CropScience Aktiengesellschaft, priority 2015, published 2019).

Test system in one series: not listed separately
The series is described as follows: Log P by HPLC on reversed phase columns (EEC directive 79/831 Annex V.A8). The settings on record: [a] LC-UV, acidic range, 0.1% formic acid in water and acetonitrile as eluent. Type of series: physicochemical. As to the method:
Measurement of Log P values was performed according to EEC directive 79/831 Annex V.A8 by HPLC (High Performance Liquid Chromatography) on reversed phase columns with the following methods: [a] Log P value is determined by measurement of LC-UV, in an acidic range, with 0.1% formic acid in water and acetonitrile as eluent (linear gradient from 10% acetonitrile to 95% acetonitrile). [b] Log P value is determined by measurement of LC-UV, in a neutral range, with 0.001 molar ammonium acetate solution in water and acetonitrile as eluent (linear gradient from 10% acetonitrile to 95% acetonitrile). Calibration was done with straight-chain alkan2-ones (with 3 to 16 carbon atoms) with known Log P values (measurement of Log P values using retention times with linear interpolation between successive alkanones). Lambda-max-values were determined using UV-spectra from 200 nm to 400 nm and the peak values of the chromatographic signals.
As for `O=C(Nc1ccccc1Oc1cccc(Cl)c1)c1cccnc1C(F)F` [Example I-06], the LogP was 3.29^[a].

As for `O=C(Nc1ccc(F)cc1-c1ccc(Cl)c(Cl)c1)c1c(C(F)F)ccnc1C(F)F` [Example I-31], the LogP was 3.96^[a].

Take `CCCCOc1c(F)cc(-c2ccccc2NC(=O)c2cccnc2C(F)F)cc1F` [Example I-59]: the LogP is 3.99^[a].

`CCON=Cc1c(F)cc(-c2cccc(F)c2NC(=O)c2cccnc2C(F)F)cc1F` [Example I-60]: the LogP is 3.35^[a].

On to `O=C(Nc1ccccc1-c1ccccc1)c1cccnc1C(F)F` [Example I-61], for which the LogP was 2.55^[a].

Consider `CC(C)(C)C#Cc1ccc(-c2ccccc2NC(=O)c2cccnc2C(F)F)cc1` [Example I-62], for which the LogP is 4.29^[a].

On to `O=C(Nc1ccccc1-c1ccc(C(F)(F)F)c(Cl)c1)c1cccnc1C(F)F` [Example I-63], for which the LogP is 3.50^[a].

`CCON=Cc1c(F)cc(-c2cc(F)ccc2NC(=O)c2cccnc2C(F)F)cc1F` [Example I-65]: the LogP was 3.55^[a].

For the compound `O=C(Nc1ccccc1-c1ccc(F)c(Cl)c1)c1cccnc1C(F)F` [Example I-66], the LogP was 3.04^[a].

Turning to `CCON=Cc1ccc(-c2ccccc2NC(=S)c2cccnc2C(F)F)cc1` [Example I-67], the LogP is 3.70^[a].

Take `COC(=N)c1c(F)cc(-c2cc(F)ccc2NC(=S)c2cccnc2C(F)F)cc1F` [Example I-69]: the LogP was 3.73^[a].

As for `CCON=Cc1c(F)cc(-c2cc(F)ccc2NC(=S)c2cccnc2C(F)F)cc1F` [Example I-70], the LogP was 4.11^[a].

As to `N#Cc1c(F)cc(-c2ccccc2NC(=S)c2cccnc2C(F)F)cc1F` [Example I-71], the LogP was 3.19^[a].

Regarding `CCON=Cc1c(F)cc(-c2cccc(F)c2NC(=S)c2cccnc2C(F)F)cc1F` [Example I-72], the LogP was 3.99^[a].

Regarding `Fc1ccc(-c2ccccc2NC(=S)c2cccnc2C(F)F)cc1F` [Example I-73], the LogP is 3.27^[a].

As to `COC(=N)c1c(F)cc(-c2cccc(F)c2NC(=S)c2cccnc2C(F)F)cc1F` [Example I-74], the LogP is 3.60^[a].

Regarding `CCON=Cc1c(F)cc(-c2ccccc2NC(=S)c2cccnc2C(F)F)cc1F` [Example I-75], the LogP was 3.92^[a].

For the compound `CON=Cc1c(F)cc(-c2ccccc2NC(=S)c2cccnc2C(F)F)cc1F` [Example I-76], the LogP was 3.55^[a].

The series is the same for the next values; noted with them: reversed phase HPLC column; [a] LC-UV, acidic range, 0.1% formic acid in water and acetonitrile as eluent.
Broadly, the chromatographic logP is a lipophilicity value derived from retention on a column. High values mean a more lipophilic compound, low ones a more hydrophilic compound. The compound `FC(F)c1ncccc1C(=S)Nc1ccccc1-c1ccc(C(F)(F)F)c(Cl)c1` [Example I-68, N-[3′-chloro-4′-(trifluoromethyl)biphenyl-2-yl]-2-(difluoromethyl)pyridine-3-carbothioamide] showed a chromatographic logP of 3.94.

The next series relates to Uromyces appendiculatus. The series is described as follows: In vivo preventive test on Uromyces appendiculatus (bean rust). As to conditions: 500 ppm of active ingredient; bean plants, preventive spray, evaluated 11 days after inoculation. As to the method:
(§1) Example: In Vivo Preventive Test on Uromyces appendiculatus (Bean Rust) [table] The active ingredients are made soluble and homogenized in a mixture of Dimethyl sulfoxide/Acetone/Tween® 80 and then diluted in water to the desired concentration. The young plants of bean are treated by spraying the active ingredient prepared as described above. Control plants are treated only with an aqueous solution of Acetone/Dimethyl sulfoxide/Tween® 80. After 24 hours, the plants are contaminated by spraying the leaves with an aqueous suspension of Uromyces appendiculatus spores. The contaminated bean plants are incubated for 24 hours at 20° C. and at 100% relative humidity and then for 10 days at 20° C. and at 70-80% relative humidity. The test is evaluated 11 days after the inoculation. 0% means an efficacy which corresponds to that of the control plants while an efficacy of 100% means that no disease is observed.
Take `O=C(Nc1ccc(F)cc1-c1ccc(Cl)c(Cl)c1)c1c(C(F)F)ccnc1C(F)F` [Example I-31]: the efficacy result was “at least 70%”.

In the next series the test system is Puccinia recondita. Nature of the series: In vivo preventive test on Puccinia recondita (brown rust on wheat). As to conditions: 10 ppm of active ingredient; wheat plants, preventive spray, evaluated 11 days after inoculation. The procedure: as §1, with “Puccinia recondita (Brown Rust on Wheat)” for “Uromyces appendiculatus (Bean Rust)”, “wheat” for “bean”, “Puccinia recondita” for “Uromyces appendiculatus”
For `O=C(Nc1ccccc1Oc1cccc(Cl)c1)c1cccnc1C(F)F` [Example I-06], the efficacy result is recorded as “at least 70%”.
